Reference: ChEMBL document CHEMBL5120812, “Cytotoxic Nitrobenzoyl Sesquiterpenoids from an Antarctica Sponge-Derived Aspergillus insulicola” (J Nat Prod, 2022)
The source made the active and inactive calls. The rule behind the calls is not given here.

Columns and labels:
[1] = biological target: Epidermal growth factor receptor (Homo sapiens) (UniProt P00533); experiment: Inhibition of EGFR downstream signalling in human ASPC1 cells assessed as reduction of STAT3 phosphorylation upto 5 uM incubated for 24 hrs by Western blot analysis; type: cell-based
ASPC1 [2] = experiment: Induction of apoptosis in human ASPC1 cells assessed as late apoptotic cells at 1.25 uM incubated for 24 hrs by annexinV-FITC and PI staining based flow cytometry analysis (reference value: 2.18 %); type: functional
[3] = biological target: Epidermal growth factor receptor (Homo sapiens) (UniProt P00533); experiment: Inhibition of EGFR expression in human PANC-1 cells upto 5 uM incubated for 24 hrs by Western blot analysis; type: cell-based
ASPC1 [4] = experiment: Upregulation of PARP expression in human ASPC1 cells incubated for 24 hrs in presence of gemcitabine by Western blot analysis; type: functional, cell-based
PANC-1 [5] = experiment: Cytotoxicity against human PANC-1 cells assessed as inhibition of cell growth incubated for 72 hrs by SRB assay; type: functional, cell-based; settings: PANC-1, 72 h
ASPC1 [6] = experiment: Induction of apoptosis in human ASPC1 cells assessed as necrotic cells at 5 uM incubated for 24 hrs by annexinV-FITC and PI staining based flow cytometry analysis (reference value: 0.27 %); type: functional
ASPC1 [7] = experiment: Induction of apoptosis in human ASPC1 cells assessed as increase in caspase 3 enzymatic activity upto 5 uM incubated for 24 hrs by Western blot analysis; type: functional, cell-based
PANC-1 [8] = experiment: Induction of apoptosis in human PANC-1 cells assessed as early apototic cells at 1.25 uM incubated for 24 hrs by annexinV-FITC and PI staining based flow cytometry analysis (reference value: 4.66 %); type: functional
PANC-1 [9] = experiment: Induction of apoptosis in human PANC-1 cells assessed as necrotic cells at 5 uM incubated for 24 hrs by annexinV-FITC and PI staining based flow cytometry analysis (reference value: 0.14 %); type: functional
ASPC1 [10] = experiment: Induction of apoptosis in human ASPC1 cells assessed as viable cells at 1.25 uM incubated for 24 hrs by annexinV-FITC and PI staining based flow cytometry analysis (reference value: 96.0 %); type: functional; settings: read-out: Activity
ASPC1 [11] = experiment: Induction of apoptosis in human ASPC1 cells assessed as necrotic cells at 1.25 uM incubated for 24 hrs by annexinV-FITC and PI staining based flow cytometry analysis (reference value: 0.27 %); type: functional
PANC-1 [12] = experiment: Induction of apoptosis in human PANC-1 cells assessed as late apototic cells at 1.25 uM incubated for 24 hrs by annexinV-FITC and PI staining based flow cytometry analysis (reference value: 5.71 %); type: functional
MDA-MB-231 = experiment: Cytotoxicity against human MDA-MB-231 cells assessed as inhibition of cell growth incubated for 72 hrs by SRB assay; type: functional, cell-based; settings: MDA-MB-231, 72 h
PANC-1 [13] = experiment: Cytotoxicity against human PANC-1 cells assessed as inhibition of cell proliferation at 0.94 to 30 uM by SRB assay; type: functional, cell-based; settings: dose 0.94-30 µM, time 24-72 hrs, TDE = time-dependent effect
ASPC1 [14] = experiment: Induction of apoptosis in human ASPC1 cells assessed as suppression of XIAP expression at upto 5 uM incubated for 24 hrs by Western blot analysis; type: functional, cell-based
ASPC1 [15] = experiment: Induction of apoptosis in human ASPC1 cells assessed as increase in cleaved caspase 9 level incubated for 24 hrs by Western blot analysis; type: functional, cell-based; settings: dose 1.25-5 µM, DDE = dose-dependent effect
ASPC1 [16] = experiment: Downregulation of Bcl-2 level in human ASPC1 cells upto 5 uM incubated for 24 hrs by Western blot analysis; type: functional, cell-based
ASPC1 [17] = experiment: Cytotoxicity against human ASPC1 cells assessed as inhibition of cell growth incubated for 72 hrs by SRB assay; type: functional, cell-based; settings: ASPC1, 72 h
ASPC1 [18] = experiment: Downregulation of survivin level in human ASPC1 cells upto 5 uM incubated for 24 hrs by Western blot analysis; type: functional, cell-based
PANC-1 [19] = experiment: Induction of apoptosis in human PANC-1 cells assessed as increase in cleaved caspase 9 level incubated for 24 hrs by Western blot analysis; type: functional, cell-based; settings: dose 1.25-5 µM, DDE = dose-dependent effect
ASPC1 [20] = experiment: Cytotoxicity against human ASPC1 cells assessed as reduction in cell viability at 5 uM incubated for 24 hrs in presence of gemcitabine by SRB assay; type: functional, cell-based
ASPC1 [21] = experiment: Cytotoxicity against human ASPC1 cells assessed as inhibition of cell proliferation at 0.94 to 30 uM by SRB assay; type: functional, cell-based; settings: dose 0.94-30 µM, time 24-72 hrs, TDE = time-dependent effect
PANC-1 [22] = experiment: Inhibition of cell migration in human PANC-1 cells at 0.94 to 3.75 uM incubated for 24 hrs by wound healing assay; type: functional, cell-based; settings: dose 0.94-3.75 µM
PANC-1 [23] = experiment: Upregulation of cleaved caspase 3 expression in human PANC-1 cells incubated for 24 hrs in presence of gemcitabine by Western blot analysis; type: functional, cell-based
ASPC1 [24] = experiment: Induction of apoptosis in human ASPC1 cells assessed as late apoptotic cells at 2.50 uM incubated for 24 hrs by annexinV-FITC and PI staining based flow cytometry analysis (reference value: 2.18 %); type: functional; settings: dose 2.5 µM
PANC-1 [25] = experiment: Upregulation of PARP expression in human PANC-1 cells incubated for 24 hrs in presence of gemcitabine by Western blot analysis; type: functional, cell-based
PANC-1 [26] = experiment: Induction of apoptosis in human PANC-1 cells assessed as necrotic cells at 2.50 uM incubated for 24 hrs by annexinV-FITC and PI staining based flow cytometry analysis (reference value: 0.14 %); type: functional; settings: dose 2.5 µM
ASPC1 [27] = experiment: Antiinvasive activity in human ASPC1 cells assessed as decrease in cell invasion at 0.94 to 3.75 uM incubated for 24 hrs by crystal violet staining based transwell assay; type: functional; settings: dose 0.94-3.75 µM
PANC-1 [28] = experiment: Induction of apoptosis in human PANC-1 cells assessed as increase in caspase 3 enzymatic activity upto 5 uM incubated for 24 hrs by Western blot analysis; type: functional, cell-based
PANC-1 [29] = experiment: Antiinvasive activity in human PANC-1 cells assessed as decrease in cell invasion at 0.94 to 3.75 uM incubated for 24 hrs by crystal violet staining based transwell assay; type: functional; settings: dose 0.94-3.75 µM
[30] = biological target: Epidermal growth factor receptor (Homo sapiens) (UniProt P00533); experiment: Inhibition of EGFR expression in human ASPC1 cells upto 5 uM incubated for 24 hrs by Western blot analysis; type: cell-based
[31] = biological target: Epidermal growth factor receptor (Homo sapiens) (UniProt P00533); experiment: Inhibition of EGFR downstream signalling in human PANC-1 cells assessed as reduction of Akt phosphorylation upto 5 uM incubated for 24 hrs by Western blot analysis; type: cell-based
ASPC1 [32] = experiment: Induction of apoptosis in human ASPC1 cells assessed as viable cells at 5 uM incubated for 24 hrs by annexinV-FITC and PI staining based flow cytometry analysis (reference value: 96.0 %); type: functional; settings: read-out: Activity
PANC-1 [33] = experiment: Induction of apoptosis in human PANC-1 cells assessed as late apototic cells at 5 uM incubated for 24 hrs by annexinV-FITC and PI staining based flow cytometry analysis (reference value: 5.71 %); type: functional
PANC-1 [34] = experiment: Cytotoxicity against human PANC-1 cells assessed as inhibition of cell proliferation incubated for 24 to 72 hrs by SRB assay; type: functional, cell-based; settings: dose 0.94-30 µM, time 24-72 hrs, DDE = dose-dependent effect
PANC-1 [35] = experiment: Induction of apoptosis in human PANC-1 cells assessed as viable cells at 1.25 uM incubated for 24 hrs by annexinV-FITC and PI staining based flow cytometry analysis (reference value: 89.5 %); type: functional; settings: read-out: Activity
PANC-1 [36] = experiment: Cytotoxicity against human PANC-1 cells assessed as reduction in cell viability at 5 uM incubated for 24 hrs in presence of gemcitabine by SRB assay; type: functional, cell-based
ASPC1 [37] = experiment: Cytotoxicity against human ASPC1 cells assessed as inhibition of cell proliferation incubated for 24 to 72 hrs by SRB assay; type: functional, cell-based; settings: dose 0.94-30 µM, time 24-72 hrs, DDE = dose-dependent effect

Sequence of Epidermal growth factor receptor (Homo sapiens) (P00533 whole entry): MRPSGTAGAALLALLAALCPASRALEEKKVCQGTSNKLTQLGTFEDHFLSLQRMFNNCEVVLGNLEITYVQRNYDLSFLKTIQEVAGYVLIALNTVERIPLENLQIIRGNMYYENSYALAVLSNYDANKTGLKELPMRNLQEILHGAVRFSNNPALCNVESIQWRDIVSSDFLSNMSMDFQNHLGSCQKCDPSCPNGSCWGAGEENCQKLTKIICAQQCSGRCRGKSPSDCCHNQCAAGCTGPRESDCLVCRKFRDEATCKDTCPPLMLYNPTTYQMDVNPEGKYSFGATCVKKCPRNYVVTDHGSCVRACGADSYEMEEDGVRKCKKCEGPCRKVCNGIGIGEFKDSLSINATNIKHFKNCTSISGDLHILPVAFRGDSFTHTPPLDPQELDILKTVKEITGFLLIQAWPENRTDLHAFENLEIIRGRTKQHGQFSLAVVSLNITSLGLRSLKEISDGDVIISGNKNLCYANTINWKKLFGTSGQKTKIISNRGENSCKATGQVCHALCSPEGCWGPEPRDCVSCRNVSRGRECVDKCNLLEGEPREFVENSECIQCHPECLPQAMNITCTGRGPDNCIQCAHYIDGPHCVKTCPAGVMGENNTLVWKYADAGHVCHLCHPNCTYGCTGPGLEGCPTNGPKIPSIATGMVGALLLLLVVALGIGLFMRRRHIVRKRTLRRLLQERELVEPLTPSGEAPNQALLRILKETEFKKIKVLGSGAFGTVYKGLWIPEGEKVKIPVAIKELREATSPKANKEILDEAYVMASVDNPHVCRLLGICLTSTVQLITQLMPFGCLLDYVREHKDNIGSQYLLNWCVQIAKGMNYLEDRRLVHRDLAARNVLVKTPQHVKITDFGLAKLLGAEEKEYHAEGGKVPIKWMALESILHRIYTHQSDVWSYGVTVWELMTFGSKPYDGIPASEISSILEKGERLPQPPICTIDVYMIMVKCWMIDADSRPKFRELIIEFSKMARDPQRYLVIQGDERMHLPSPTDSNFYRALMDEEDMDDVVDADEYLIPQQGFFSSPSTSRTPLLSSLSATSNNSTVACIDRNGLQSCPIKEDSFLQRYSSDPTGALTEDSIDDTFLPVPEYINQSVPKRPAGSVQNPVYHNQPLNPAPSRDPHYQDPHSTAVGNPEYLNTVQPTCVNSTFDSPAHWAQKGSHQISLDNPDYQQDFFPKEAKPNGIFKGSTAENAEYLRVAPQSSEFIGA

For `COC(=O)CCCCCCC/C=C/C(=O)OC[C@@]1(C)CCC[C@@]2(C)[C@H]1[C@H](OC(=O)c1ccc([N+](=O)[O-])cc1)C=C1C(=O)OC[C@@]12O`, the inhibition [1] was “Active”, the Activity (ASPC1 [2]) was 3.96% and the inhibition [3] was “Active”. The Activity (ASPC1 [4]) was “Active”, the IC50 (PANC-1 [5]) was 4.2 µM and the Activity (ASPC1 [6]) was 1.79%. The Activity (ASPC1 [7]) was “Active”, the Activity (PANC-1 [8]) was 5.99% and the Activity (PANC-1 [9]) was 0.11%. The viability at 1.25 µM (ASPC1 [10]) was 90.1%, the Activity (ASPC1 [11]) was 0.2% and the Activity (PANC-1 [12]) was 3.09%. The IC50 (MDA-MB-231) was 22.9 µM, the Activity (PANC-1 [13]) was “Tde” and the Activity (ASPC1 [14]) was “Active”. For the same compound, the Activity (ASPC1 [15]) was “Dde”, the Activity (ASPC1 [16]) was “Active” and the IC50 (ASPC1 [17]) was 2.3 µM. The Activity (ASPC1 [18]) was “Active”, the Activity (PANC-1 [19]) was “Dde” and the Activity (ASPC1 [20]) was “Active”. For the same compound, the Activity (ASPC1 [21]) was “Tde”, the inhibition (PANC-1 [22]) was “Active” and the Activity (PANC-1 [23]) was “Active”. For the same compound, the Activity (ASPC1 [24]) was 4.92%, the Activity (PANC-1 [25]) was “Active” and the Activity (PANC-1 [26]) was 0.25%. The Activity (ASPC1 [27]) was “Active”, the Activity (PANC-1 [28]) was “Active” and the Activity (PANC-1 [29]) was “Active”. The inhibition [30] was “Active”, the inhibition [31] was “Active” and the viability at 5 µM (ASPC1 [32]) was 85.1%. For the same compound, the Activity (PANC-1 [33]) was 23.1%, the Activity (PANC-1 [34]) was “Dde” and the viability at 1.25 µM (PANC-1 [35]) was 90.7%. The Activity (PANC-1 [36]) was “Active” and the Activity (ASPC1 [37]) was “Dde”.
